Columns and labels:
C. elegans [1] = experiment: Growth rate / worm size; assay type: in vivo; conditions: 100 mM H2O2 plus supplement (10 mM GA, 100 μM glycine or 500 μM L-serine)
Protocol: (§1) Synchronized L1 worms were incubated at 15° C. on plates or in liquid culture and exposed to different conditions as indicated. Single worms were selected randomly from the plates or aliquots were taken from the liquid cultures and added to NGM plates for immediate visualization. 25 worms per treatment were measured at 24-48 hr intervals and all growth curves were done four times.

C. elegans [2] = experiment: Oxygen consumption rate (OCR), Seahorse XFe96; assay type: in vivo; conditions: 100 mM H2O2 plus supplement (10 mM GA, 100 μM glycine or 500 μM L-serine)
Protocol: Oxygen consumption of worms was measured with a Seahorse XFe96 system (Seahorse Bioscience, North Billerica, MA), as previously described^4. L3 larvae of the different strains were grown on plates or in liquid culture and supplemented for 2-4 days as described for each experiment. After removing bacteria and debris, approximately 100 worms were pipetted into each well of a 96-well Seahorse XF^e assay plate and OCR was measured until it stabilized. Then, 3 subsequent measurements were made at 6.5-min intervals. Finally, the exact number of worms in each well was counted and used for normalization. A small number of abnormal readings were also filtered out at this stage. On average, 7-8 wells (technical replicates) were used for each condition. Normalized OCR values were averaged for the last 3 measurements for each strain and condition. Four biological replicates were analyzed for each condition.

C. elegans [3] = experiment: Peroxide treatment of mutant, RNAi or unstressed worms: MMP, OCR and growth read together; assay type: in vivo
Text: C. elegans wild-type (N2) strain was received from Caenorhabditis Genetics Center, USA. Mutant strains were generated using the following primers. Idh-1: […] and […]; C31C9.2 (ghpr-1): […] and […]and F41E6.5 (gox-1): […]and[…]. […] Progeny of the rescued strains were genotyped for homozygous deletion with PCR primers for three generations. All mutants were outcrossed at least twice with the wild type to eliminate background mutations. Double and triple mutants were obtained by crossing single or double mutants and selecting the homozygous progeny by PCR.
For RNAi experiments in liquid, E. coli HT115 containing L4440 empty vector or the indicated cDNA fragment in L4440 was inoculated in 100 ml of LB containing 100 μg/ml ampicillin and incubated overnight at 37° C. in a shaking incubator at 250 rpm. To induce the production of dsRNA, a final concentration 0.8 mM IPTG was added to the collected bacterial pellet diluted 100-fold and incubated overnight at 25° C. in a shaking incubator at 250 rpm. Bacteria were then pelleted by centrifugation at 4000 rpm for 5 mins and resuspended in 200 μl S-medium containing 100 μg/ml ampicillin and 0.8 mM IPTG.
A population of synchronized L1 larvae was added to 30-ml glass tubes containing 2.5 ml of S-complete medium (liquid culture)^2 and NA22 or induced RNAi bacteria at an OD600 of 1.9. […] Worms were incubated at 15° C. and 150 rpm in a shaking incubator for 2-6 days, refreshing the medium every 2 days.
Mitochondrial staining was performed as described previously^3,4. Briefly, L1 worms were grown on plate or in liquid culture for 2-3 days at 15° C. Subsequently, they were pelleted in a 15-ml tube, rinsed twice with H2O and resuspended in 100 μl of M9. 5 μM MitoTracker Red CMXRos (Thermo Fisher Scientific, Germany) in DMSO was added to the worm suspension and incubated in this solution for 1.5 hr at room temperature in the dark. Next, the excess dye was washed off with M9 buffer and worms were incubated in 100 μl M9 for 30 min to eliminate the excess dye in the gut. Finally, worms were paralyzed with 0.5 mM Levamizol (Sigma-Aldrich), placed on slides covered with a thin layer of 2% agarose on top of which the coverslip (22×22 mm, Menzel-Glaser no. 1) was fixed using nail polish. We used a Zeiss LSM 700 inverted laser scanning confocal microscope and a Zeiss LCI Plan-Neofluar 63×/1.3 ImmCorr DIC M27 objective to image mitochondria (Zeiss, Germany). MitoTracker Red CMXRos was excited at 555 nm and the emission above 560 nm was acquired by the second PMT. Optical sections at 0.1×0.1×0.5 μm^3 x-y-z resolution were collected in a 4D hyperstack. Final images were adjusted for intensity and merged in Fiji. No non-linear adjustments were made.
as §1, with “times. Images were analyzed using FIJI (Image J) software, with length measurements derived by the sum-total of a number of segmented lines of known length, down the center of the worm as described previously^5.” for “times.”
Oxygen consumption of worms was measured with a Seahorse XFe96 system (Seahorse Bioscience, North Billerica, MA), as previously described^4. L3 larvae of the different strains were grown on plates or in liquid culture and supplemented for 2-4 days as described for each experiment. After removing bacteria and debris, approximately 100 worms were pipetted into each well of a 96-well Seahorse XF^e assay plate and OCR was measured until it stabilized. Then, 3 subsequent measurements were made at 6.5-min intervals. Finally, the exact number of worms in each well was counted and used for normalization.

[4] = system: gox-1, ghpr-1, gcst-1, mel-32 and gcs-1 genes; experiment: Quantitative real-time PCR of glycolate pathway genes; assay type: in vivo, C. elegans
Protocol: The differential expression of F41E6.5 (gox-1), C31C9.2 (ghpr-1), gcst-1, mel-32 and gcs-1 genes was measured using qRT-PCR. ˜5000 L1 N2 worms were exposed to each condition for 3 days at 15° Cas described above and then washed three times with H2O. Total RNA was isolated using the RNeasy Mini Kit (Qiagen) and equal amounts of all samples were reverse transcribed with SuperScript Ill (Invitrogen) using oligo(dT) 12-18 primers. cDNA quality was tested using standard PCR. qRT-PCR was performed using pre-designed TaqMan Gene Expression Assay (ThermoFischer Scientific) with at least three samples in triplicates. For the relative quantification of gene expression levels, the 2^−ΔΔCT method and results were normalized to the expression level of the cdc-42 gene. Expression levels were averaged over technical and biological replicates, […]

[5] = system: living organism treated with Paraquat (PQ2+); conditions: cited from earlier work

O=C(O)CO [GA, glycolic acid]
Growth (C. elegans [1]): able to restore both traits
Respiration rate (OCR) (C. elegans [2]): able to restore both traits
Impact on any of the parameters analyzed (FIGS. 1 and 2) (C. elegans [3]; GA supplementation in the absence of H2O2): does not have a significant impact
Restoration of MMP, OCR or growth rate (C. elegans [3]; H2O2, RNAi against mel-32 or gcst-1): none of these three compounds were able to restore
MMP, OCR, growth rate (C. elegans [3]; H2O2, worms fed with empty vector RNAi bacteria): restored parameters
Glycolate-mediated protection (MMP, OCR, growth) (C. elegans [3]; ghpr-1, gox-1, ldh-1 triple mutant, H2O2): totally abolished
Effect of glycolate on MMP, oxygen consumption rate and developmental rate (C. elegans [3]; ghpr-1 deletion mutant, H2O2 treatment): significantly reduced effect
Effect of glycolate on MMP, OCR or growth (C. elegans [3]; single mutants of gox-1 and ldh-1 or their double mutants, H2O2): no reduction in the effect
Expression of gox-1, ghpr-1, mel-32 and gcs-1 ([4]; glycolate supplementation): moderately induced
Expression of gcst-1 ([4]; peroxide or glycolate supplementation): not significantly altered
Animal growth ([5]; PQ2+ exposure): unable to restore
OCR (Oxygen consumption Rate) ([5]; PQ2+ exposure): unable to restore
Mitochondrial membrane potential ([5]; Paraquat (PQ2+) treated): can restore
